Source: PubChem BioAssay (NCI)
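Step 1: Grow cells in 96-well plates. Step 2: Expose to compound for 48 hours at 5 concentrations. Step 3: Interpolate endpoints linearly; if unreached, use highest concentration. TGI: total growth inhibition.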

Legend:
Assay in all cases: inhibition of tumour cell growth, NCI panel, 48 h
[1] = tested on: SR leukemia
[2] = tested on: MDA-MB-435
[3] = tested on: U251 CNS
[4] = tested on: KM12 colon
[5] = tested on: NCI-H226 lung
[6] = tested on: HCT-116 colon
[7] = tested on: NCI/ADR-RES ovarian
[8] = tested on: HCT-15 colon
[9] = tested on: UO-31 renal
[10] = tested on: HL-60(TB) leukemia
[11] = tested on: HCC-2998 colon
[12] = tested on: NCI-H460 lung
[13] = tested on: OVCAR-3 ovarian
[14] = tested on: DU-145 prostate
[15] = tested on: TK-10 renal
[16] = tested on: HS 578T breast
[17] = tested on: COLO 205 colon
[18] = tested on: SN12C renal
[19] = tested on: SW-620 colon
[20] = tested on: OVCAR-8 ovarian
[21] = tested on: SK-OV-3 ovarian
[22] = tested on: MDA-MB-231 breast
[23] = tested on: A549 NSCLC
[24] = tested on: SK-MEL-28 melanoma
[25] = tested on: RXF 393 renal
[26] = tested on: A498 renal
[27] = tested on: CAKI-1 renal
[28] = tested on: HOP-92 NSCLC
[29] = tested on: T-47D breast
[30] = tested on: SNB-19 CNS
[31] = tested on: SF-539 CNS
[32] = tested on: CCRF-CEM leukemia
[33] = tested on: SF-268 CNS
[34] = tested on: OVCAR-5 ovarian
[35] = tested on: LOX IMVI melanoma
[36] = tested on: SNB-75 CNS
[37] = tested on: MDA-N
[38] = tested on: PC-3 prostate
[39] = tested on: ACHN renal
[40] = tested on: BT-549 breast
[41] = tested on: IGROV1 ovarian
[42] = tested on: UACC-257 melanoma
[43] = tested on: NCI-H522 lung
[44] = tested on: HOP-62 NSCLC
[45] = tested on: SF-295 CNS
[46] = tested on: NCI-H23 lung
[47] = tested on: MCF7 breast
[48] = tested on: 786-0 renal
[49] = tested on: M14 melanoma
[50] = tested on: SK-MEL-2 melanoma
[51] = tested on: RPMI-8226 leukemia
[52] = tested on: EKVX NSCLC
[53] = tested on: OVCAR-4 ovarian
[54] = tested on: MOLT-4 leukemia
[55] = tested on: MALME-3M melanoma
[56] = tested on: HT29 colon
[57] = tested on: UACC-62 melanoma
[58] = tested on: K-562 leukemia
[59] = tested on: SK-MEL-5 melanoma
[60] = tested on: KM20L2 colon
[61] = tested on: DLD-1 colon

`O=[N+]([O-])c1ccc(NC(=S)N=Nc2c(O)[nH]c3ccc([N+](=O)[O-])cc23)cc1` showed a TGI [1] of over 100 µM, a TGI [2] of 38.7 µM and a TGI [3] of 50.8 µM. For the same molecule, the TGI [4] was 37.6 µM, the TGI [5] was 86.5 µM and the TGI [6] was 46.3 µM. The TGI [7] was 48.6 µM, the TGI [8] was 46.8 µM and the TGI [9] was 45.1 µM. For the same molecule, the TGI [10] was 73.1 µM, the TGI [11] was 35.9 µM and the TGI [12] was 41.9 µM. For the same molecule, the TGI [13] was 47.5 µM, the TGI [14] was 49 µM and the TGI [15] was 56.7 µM. For the same molecule, the TGI [16] was over 100 µM, the TGI [17] was over 100 µM and the TGI [18] was over 100 µM. It also gave a TGI [19] of over 100 µM, a TGI [20] of over 100 µM and a TGI [21] of 41.8 µM. It also gave a TGI [22] of 45 µM, a TGI [23] of 48.1 µM and a TGI [24] of 80.7 µM. It also gave a TGI [25] of 37.1 µM, a TGI [26] of 32.7 µM and a TGI [27] of 43.2 µM. For the same molecule, the TGI [28] was 35.2 µM, the TGI [29] was 63.1 µM and the TGI [30] was 69.3 µM. It also gave a TGI [31] of over 100 µM, a TGI [32] of 60.4 µM and a TGI [33] of 72.4 µM. It also gave a TGI [34] of 68 µM, a TGI [35] of 49.1 µM and a TGI [36] of 42.8 µM. For the same molecule, the TGI [37] was 41.7 µM, the TGI [38] was 49.3 µM and the TGI [39] was 74 µM. For the same molecule, the TGI [40] was 33.7 µM, the TGI [41] was 40 µM and the TGI [42] was 50.3 µM. It also gave a TGI [43] of 60.5 µM, a TGI [44] of 50.4 µM and a TGI [45] of 45.1 µM. It also gave a TGI [46] of 41.1 µM, a TGI [47] of 84.1 µM and a TGI [48] of 32.3 µM. For the same molecule, the TGI [49] was 41.9 µM, the TGI [50] was 35.8 µM and the TGI [51] was over 100 µM. The TGI [52] was 63.6 µM, the TGI [53] was 40.8 µM and the TGI [54] was over 100 µM. The TGI [55] was 55.5 µM, the TGI [56] was 65.6 µM and the TGI [57] was 49.1 µM. The TGI [58] was over 100 µM and the TGI [59] was 30.7 µM.
`CC(=O)OCC1OC(n2c(-c3ccccc3)c(N=Nc3ccccc3)c(C)c(C#N)c2=S)C(OC(C)=O)C(OC(C)=O)C1OC(C)=O` (stereo not drawn) gave a TGI [1] of over 100 µM, a TGI [2] of over 100 µM and a TGI [3] of over 100 µM. It also gave a TGI [4] of over 100 µM, a TGI [6] of over 100 µM and a TGI [7] of over 100 µM. For the same molecule, the TGI [8] was over 100 µM, the TGI [9] was over 100 µM and the TGI [10] was over 100 µM. The TGI [11] was over 100 µM, the TGI [12] was over 100 µM and the TGI [13] was over 100 µM. It also gave a TGI [14] of over 100 µM, a TGI [15] of over 100 µM and a TGI [16] of over 100 µM. The TGI [17] was over 100 µM, the TGI [18] was over 100 µM and the TGI [19] was over 100 µM. For the same molecule, the TGI [21] was over 100 µM, the TGI [22] was over 100 µM and the TGI [23] was over 100 µM. The TGI [24] was over 100 µM, the TGI [25] was over 100 µM and the TGI [27] was over 100 µM. It also gave a TGI [28] of over 100 µM, a TGI [29] of over 100 µM and a TGI [30] of over 100 µM. For the same molecule, the TGI [31] was over 100 µM, the TGI [32] was over 100 µM and the TGI [33] was over 100 µM. It also gave a TGI [34] of over 100 µM, a TGI [35] of over 100 µM and a TGI [36] of over 100 µM. For the same molecule, the TGI [37] was over 100 µM, the TGI [38] was over 100 µM and the TGI [39] was over 100 µM. The TGI [40] was over 100 µM, the TGI [41] was over 100 µM and the TGI [42] was over 100 µM. The TGI [44] was over 100 µM, the TGI [45] was over 100 µM and the TGI [46] was over 100 µM. It also gave a TGI [47] of over 100 µM, a TGI [48] of over 100 µM and a TGI [49] of over 100 µM. It also gave a TGI [50] of over 100 µM, a TGI [51] of over 100 µM and a TGI [53] of over 100 µM. For the same molecule, the TGI [54] was over 100 µM, the TGI [55] was over 100 µM and the TGI [56] was over 100 µM. For the same molecule, the TGI [57] was over 100 µM, the TGI [58] was over 100 µM and the TGI [59] was over 100 µM.
For `COC(=O)/C(=N\NC(C)(C)C)C(C(=O)C(=O)Nc1cc(C)ccc1C)c1nc2ccccc2[nH]c1=O` (stereo not drawn), the TGI [1] was over 100 µM, the TGI [4] was over 100 µM and the TGI [5] was over 100 µM. For the same molecule, the TGI [10] was over 100 µM, the TGI [15] was over 100 µM and the TGI [17] was over 100 µM. The TGI [18] was over 100 µM, the TGI [19] was over 100 µM and the TGI [20] was over 100 µM. For the same molecule, the TGI [26] was over 100 µM, the TGI [27] was over 100 µM and the TGI [28] was over 100 µM. For the same molecule, the TGI [30] was over 100 µM, the TGI [31] was over 100 µM and the TGI [32] was over 100 µM. For the same molecule, the TGI [34] was over 100 µM, the TGI [35] was over 100 µM and the TGI [36] was over 100 µM. It also gave a TGI [60] of over 100 µM, a TGI [39] of over 100 µM and a TGI [41] of over 100 µM. The TGI [42] was over 100 µM, the TGI [61] was over 100 µM and the TGI [44] was over 100 µM. It also gave a TGI [45] of over 100 µM, a TGI [46] of over 100 µM and a TGI [51] of over 100 µM. It also gave a TGI [52] of over 100 µM, a TGI [53] of over 100 µM and a TGI [54] of over 100 µM. For the same molecule, the TGI [56] was over 100 µM, the TGI [57] was over 100 µM and the TGI [58] was over 100 µM. It also gave a TGI [59] of over 100 µM.
Work on `COc1cc(CC(C)NC(C)=O)cc(OC)c1` (stereo not drawn) yielded a TGI [1] of over 100 µM, a TGI [2] of over 100 µM and a TGI [3] of over 100 µM. It also gave a TGI [4] of over 100 µM, a TGI [5] of over 100 µM and a TGI [6] of over 100 µM. The TGI [7] was over 100 µM, the TGI [8] was over 100 µM and the TGI [9] was over 100 µM. For the same molecule, the TGI [10] was over 100 µM, the TGI [11] was over 100 µM and the TGI [12] was over 100 µM. It also gave a TGI [13] of over 100 µM, a TGI [14] of over 100 µM and a TGI [15] of over 100 µM. It also gave a TGI [16] of over 100 µM, a TGI [17] of over 100 µM and a TGI [18] of over 100 µM. The TGI [19] was over 100 µM, the TGI [20] was over 100 µM and the TGI [21] was over 100 µM. The TGI [22] was over 100 µM, the TGI [23] was over 100 µM and the TGI [24] was over 100 µM. For the same molecule, the TGI [25] was over 100 µM, the TGI [26] was over 100 µM and the TGI [27] was over 100 µM. It also gave a TGI [29] of over 100 µM, a TGI [30] of over 100 µM and a TGI [31] of over 100 µM. The TGI [32] was over 100 µM, the TGI [33] was over 100 µM and the TGI [34] was over 100 µM. For the same molecule, the TGI [35] was over 100 µM, the TGI [36] was over 100 µM and the TGI [37] was over 100 µM. It also gave a TGI [38] of over 100 µM, a TGI [39] of over 100 µM and a TGI [40] of over 100 µM. The TGI [41] was over 100 µM, the TGI [42] was over 100 µM and the TGI [43] was over 100 µM. The TGI [44] was over 100 µM, the TGI [45] was over 100 µM and the TGI [46] was over 100 µM. The TGI [47] was over 100 µM, the TGI [48] was over 100 µM and the TGI [49] was over 100 µM. The TGI [50] was over 100 µM, the TGI [51] was over 100 µM and the TGI [54] was over 100 µM. It also gave a TGI [55] of over 100 µM, a TGI [56] of over 100 µM and a TGI [57] of over 100 µM. The TGI [58] was over 100 µM and the TGI [59] was over 100 µM.
